This note sets out measurements from PubChem BioAssay (NCI).

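Cells were grown in 96-well plates and exposed to each compound for 48 hours at five concentrations; endpoints were interpolated linearly between bracketing concentrations, or set to the highest concentration if not reached. At the GI50, growth is halved. TGI: concentration producing complete growth inhibition.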 Where only a bound is given, the exact number is not on record here.

Among the test systems are SNB-19 CNS; HS 578T breast; MCF7 breast; SN12C renal; NCI-H522 lung; BT-549 breast; TK-10 renal; MDA-MB-231 breast; A549 NSCLC; K-562 leukemia.
What all share (assay): NCI tumour cell line growth inhibition, 48 h

Take `O=[N+]([O-])c1ccc(Sc2c3ccccc3nc3ccccc23)nc1`: the TGI came to 40.5 µM with SNB-19 CNS; 60.7 µM with HS 578T breast; 9.15 µM with MCF7 breast; 29.6 µM with SN12C renal; 8.09 µM with NCI-H522 lung; 27.3 µM in the experiment on BT-549 breast. The TGI with TK-10 renal came out at 6.84 µM; in the experiment on MDA-MB-231 breast it was 15.4 µM; in the experiment with A549 NSCLC it was 43.7 µM.
On to `CCc1nc(N)nc(N)c1-c1ccc(NCCc2ccccc2)c([N+](=O)[O-])c1`, for which the TGI in the experiment on SNB-19 CNS was > 63.1 µM; in the experiment with HS 578T breast, > 75.4 µM; in the experiment with MCF7 breast it was 33.6 µM; in the experiment with SN12C renal, > 71.3 µM; with BT-549 breast, 42.9 µM; in the experiment on TK-10 renal, > 69.7 µM. Besides, the figures for the TGI in the experiment on MDA-MB-231 breast, in the experiment with K-562 leukemia and in the experiment on A549 NSCLC were > 88.9 µM, > 36.3 µM and 21.8 µM, respectively.
For `O=C(OCc1ccc2c(Cl)cc(Cl)c(O)c2n1)c1cc2ccccc2[nH]1`, the GI50 in the experiment with SNB-19 CNS was 1.59 µM; in the experiment with HS 578T breast it was 1.62 µM; in the experiment with SN12C renal, 0.285 µM; with NCI-H522 lung, 0.361 µM; in the experiment with BT-549 breast, 0.265 µM; in the experiment with TK-10 renal, 0.553 µM. Also, the GI50 is 0.422 µM with MDA-MB-231 breast, 0.336 µM in the experiment on K-562 leukemia and 1.75 µM in the experiment with A549 NSCLC. Besides, the TGI was 2.99 µM with SNB-19 CNS; 4.48 µM with HS 578T breast; 0.939 µM in the experiment with SN12C renal; 1.15 µM with NCI-H522 lung; 0.845 µM with BT-549 breast; 1.47 µM with TK-10 renal. The TGI with MDA-MB-231 breast amounted to 1.52 µM; with K-562 leukemia, 10.2 µM; in the experiment with A549 NSCLC, 4.01 µM.
On to `CC1=C[S+](c2ccccc2)c2cccc3cc4ccccc4c1c23` (stereo unspecified), for which the GI50 is 0.35 µM in the experiment with SNB-19 CNS; 0.385 µM in the experiment on HS 578T breast; 0.172 µM in the experiment with SN12C renal; 0.297 µM in the experiment with NCI-H522 lung; 0.216 µM in the experiment with BT-549 breast; 0.604 µM in the experiment with TK-10 renal. In addition, the GI50 was 1.69 µM in the experiment on MDA-MB-231 breast, 0.0712 µM with K-562 leukemia and 0.309 µM with A549 NSCLC. Also, the TGI in the experiment on SNB-19 CNS worked out at 1.5 µM; with HS 578T breast, 14.8 µM; in the experiment on SN12C renal, 1.25 µM; with NCI-H522 lung it was 1.57 µM; in the experiment on BT-549 breast, 0.717 µM; in the experiment on TK-10 renal, 2.38 µM. The TGI amounted to 4.48 µM in the experiment with MDA-MB-231 breast, 3.85 µM in the experiment with K-562 leukemia and 3.59 µM in the experiment on A549 NSCLC.
For the molecule `CC(=O)OCC1O[C@@H]([S-])C(OC(C)=O)[C@H](OC(C)=O)[C@@H]1OC(C)=O.[Au+].c1ccc(CN2[CH-]N(Cc3ccccc3)C(c3ccccc3)=C2c2ccccc2)cc1`, the GI50 is 2.51 µM in the experiment with HS 578T breast; 2.22 µM in the experiment with SN12C renal; 1.58 µM with NCI-H522 lung; 1.86 µM with BT-549 breast; 1.86 µM in the experiment on TK-10 renal; 3.81 µM in the experiment on A549 NSCLC. Moreover, the TGI turned out to be 6.91 µM in the experiment with HS 578T breast; 5.58 µM in the experiment with SN12C renal; 3.66 µM with NCI-H522 lung; 3.54 µM in the experiment with BT-549 breast; 3.42 µM with TK-10 renal; 21.4 µM in the experiment with A549 NSCLC.
On to `CNCCCNc1nc2ccccc2c2c(=O)c3cc(Cl)ccc3sc12`, for which the GI50 in the experiment on HS 578T breast is 1.72 µM; in the experiment on SN12C renal, 1.54 µM; with BT-549 breast, 13.3 µM; in the experiment on TK-10 renal, 1.99 µM; in the experiment on MDA-MB-231 breast, 1.33 µM; in the experiment with A549 NSCLC, 1.55 µM. Also, the TGI in the experiment with HS 578T breast worked out at 4.31 µM; with SN12C renal, 2.93 µM; in the experiment on BT-549 breast, 40.5 µM; with TK-10 renal, 3.48 µM; with MDA-MB-231 breast, 2.67 µM; in the experiment with A549 NSCLC, 3.04 µM.
Regarding `N#Cc1ccc(C(c2ccc(C#N)cc2)n2cncn2)cc1`, the GI50 with SNB-19 CNS is > 5000 µM; in the experiment with HS 578T breast, 1540 µM; in the experiment with MCF7 breast, > 5000 µM; with SN12C renal, > 5000 µM; in the experiment on TK-10 renal, 1310 µM; in the experiment on K-562 leukemia it was 3800 µM. The GI50 in the experiment on A549 NSCLC was > 5000 µM. Moreover, the TGI with SNB-19 CNS, with HS 578T breast, in the experiment with MCF7 breast, in the experiment with SN12C renal, with NCI-H522 lung and in the experiment on BT-549 breast was > 5000 µM in each case. In addition, the TGI with TK-10 renal, in the experiment with K-562 leukemia and in the experiment with A549 NSCLC was > 5000 µM in each case.
Consider `CCCCCC/C=C\CCCCCCCCCC1=CC(=O)C=C(OC)C1=O`, for which the TGI in the experiment on SNB-19 CNS stood at 20.1 µM; in the experiment with HS 578T breast, 41.7 µM; in the experiment on MCF7 breast, 15.3 µM; in the experiment on SN12C renal it was 14.4 µM; with NCI-H522 lung it was 4.58 µM; in the experiment with BT-549 breast, 13.1 µM. For the same molecule, the TGI with TK-10 renal worked out at 18.8 µM; with MDA-MB-231 breast it was 18.4 µM; in the experiment on A549 NSCLC it was 16.3 µM.
As for `C#Cc1cccc(Nc2nc3ccc([N+](=O)[O-])cc3nc2Nc2cccc(C#C)c2)c1`, the GI50 is 0.361 µM in the experiment on SNB-19 CNS; 0.322 µM in the experiment on HS 578T breast; 0.266 µM with MCF7 breast; 0.313 µM in the experiment on SN12C renal; 0.209 µM in the experiment on NCI-H522 lung; 0.294 µM with BT-549 breast. Besides, the GI50 with MDA-MB-231 breast is 0.281 µM; with K-562 leukemia it was 0.216 µM; in the experiment with A549 NSCLC it was 0.212 µM. In addition, the TGI worked out at 1.84 µM in the experiment on SNB-19 CNS; 1.72 µM in the experiment on HS 578T breast; 1.07 µM in the experiment on MCF7 breast; 1.29 µM in the experiment on SN12C renal; 0.609 µM with NCI-H522 lung; 1.2 µM in the experiment on BT-549 breast. For the same molecule, the values for the TGI in the experiment on MDA-MB-231 breast, in the experiment on K-562 leukemia and in the experiment with A549 NSCLC were 0.807 µM, 0.7 µM and 1.12 µM, respectively.
As for `COC1=Nc2ccccc2S(=O)(=O)C=C1`, the TGI in the experiment with SNB-19 CNS was determined as 56.7 µM; in the experiment on HS 578T breast, 53.4 µM; with MCF7 breast, 12.3 µM; with SN12C renal, 31.7 µM; with NCI-H522 lung it was 2.81 µM; with BT-549 breast it was 19.1 µM. The TGI with TK-10 renal came to 11.3 µM; in the experiment on MDA-MB-231 breast it was 27.2 µM; in the experiment with A549 NSCLC, 36.9 µM. For the same molecule, the GI50 in the experiment with BT-549 breast is 0.678 µM.
